This passage reports IC50 results from US9415055B2, “Cyclic amines” (H. Lundbeck A/S, priority 2012, dated 2016).

The assay deals with P2X7 receptor (Homo sapiens (Human), UniProt Q99572). As to the kind of experiment: P2X7 FLIPR assay: antagonism of BzATP response in 293 HEK cells stably expressing P2X7 receptor. The assay is classed as cell-based. Particulars: FLIPR fluorescence (Fluo-4), agonist BzATP, 293 HEK cells stably transfected with P2X7 receptor. The method, then: Cells were plated to cell density of approximately 15,000 cells/well in 384-well assay plates (50 μl/well) with 1.5% low serum media (DMEM, 1.5% BCS, 1% L-glut (2 mM), 1% P/S).
Chain of P2X7 receptor (Q99572 whole entry): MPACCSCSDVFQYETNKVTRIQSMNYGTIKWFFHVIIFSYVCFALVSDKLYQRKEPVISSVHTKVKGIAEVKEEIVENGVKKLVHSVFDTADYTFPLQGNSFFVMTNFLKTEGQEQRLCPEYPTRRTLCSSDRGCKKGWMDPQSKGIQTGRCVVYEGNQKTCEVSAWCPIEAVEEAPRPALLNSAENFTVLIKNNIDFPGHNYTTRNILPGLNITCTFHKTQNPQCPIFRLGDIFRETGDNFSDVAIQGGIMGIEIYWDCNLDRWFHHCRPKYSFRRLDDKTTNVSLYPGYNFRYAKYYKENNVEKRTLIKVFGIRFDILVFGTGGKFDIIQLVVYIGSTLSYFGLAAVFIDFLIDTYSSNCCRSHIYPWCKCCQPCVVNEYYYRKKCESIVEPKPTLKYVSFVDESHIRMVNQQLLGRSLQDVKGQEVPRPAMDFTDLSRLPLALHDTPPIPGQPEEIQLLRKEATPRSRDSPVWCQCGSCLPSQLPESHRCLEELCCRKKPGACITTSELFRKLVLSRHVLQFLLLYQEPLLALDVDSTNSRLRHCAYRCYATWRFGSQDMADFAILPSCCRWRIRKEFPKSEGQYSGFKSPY
Cells were plated to cell density of approximately 15,000 cells/well in 384-well assay plates (50 μl/well) with 1.5% low serum media (DMEM, 1.5% FBS, 1% L-glut (2 mM), 10 mM HEPES, 1% P/S). Cells were plated 24 hours prior to assay. Cells expressing human, rat or mouse P2X7 receptor were assayed in the following manner.
Fluo-4 NW dye mix (Molecular Probes, Inc., Eugene, Oreg., USA) was prepared in buffer (see manufacturer's instructions). Cell plates were removed from the 37° C. incubator, the media discarded and then 30 μL of dye was added to each well. Plates were placed in the 37° C., non-CO2 incubator for 30 minutes and then room temperature for 30 minutes.
Compound mixtures (A) were added to assay plates containing cells and placed at room temperature for 30 minutes, then BzATP (B) was added. Fluorescence was read using the Tetra FLIPR® (Molecular Devices, Inc., Sunnyvale, Calif., USA) and IC50 values were calculated by standard methods to determine antagonist activity.

What is called IC50 is the concentration that gives 50% inhibition. Low values mean greater potency in that assay, high ones weaker potency in that assay. `Cn1cc(C(CNC(=O)c2cc(F)cc(Cl)c2Cl)N2CCC(F)(F)CC2)cn1` (single isomer, unassigned; (-)) [(−)2,3-dichloro-N-[2-(4,4-difluoro-1-piperidyl)-2-(1-methylp] [(−)2,3-dichloro-5-fluoro-N-(2-(4,4-difluoropiperidin-1-yl)-2-(1-methyl-1H-pyrazol-4-yl)ethyl)benzamide] showed an IC50 of 0.026 µM. That is a double-digit nanomolar value.
As for `O=C(NCC(c1cnc(C2CC2)nc1)N1CCC(F)(F)CC1)c1c(F)cccc1Cl` (single isomer, unassigned; (-)) [(−)2-chloro-N-[2-(2-cyclopropylpyrimidin-5-yl)-2-(4,4-difluo] [(−)2-chloro-6-fluoro-N-(2-(2-cyclopropylpyrimidin-5-yl)-2-(4,4-difluoropiperidin-1-yl)ethyl)benzamide], the figure is 0.011 µM; as for `Cc1ncc(C(CNC(=O)c2cc(F)cc(Cl)c2Cl)N2CCC(F)(F)CC2)cn1` (single isomer, unassigned; (+)) [(+)2,3-dichloro-N-[2-(4,4-difluoro-1-piperidyl)-2-(2-methylp] [(+)2,3-dichloro-5-fluoro-N-(2-(4,4-difluoropiperidin-1-yl)-2-(2-methylpyrimidin-5-yl)ethyl)benzamide], 0.0051 µM.
In the case of `Cc1ncc(C(CNC(=O)c2ccc(Cl)cc2Cl)N2CCC(F)(F)CC2)cn1` (stereo not drawn) [2,4-dichloro-N-(2-(4,4-difluoropiperidin-1-yl)-2-(2-methylpyrimidin-5-yl)ethyl)benzamide] it was 0.044 µM; in that of `CS(=O)(=O)c1ccc(Cl)c(C(=O)NCC(c2ccc(Cl)cc2)N2CCOCC2)c1` (single isomer, unassigned; (+)) [(+)2-chloro-N-[2-(4-chlorophenyl)-2-morpholino-ethyl]-5-meth] [(+)2-chloro-N-(2-(4-chlorophenyl)-2-morpholinoethyl)-5-(methylsulfonyl)benzamide], 0.18 µM; in that of `Cc1ncc(C(CNC(=O)c2cccc(Cl)c2Cl)N2CCCC(F)(F)C2)cn1` (single isomer, unassigned; (+)) [(+2,3-dichloro-N-(2-(3,3-difluoropiperidin-1-yl)-2-(2-methylpyrimidin-5-yl)ethyl)benzamide], 0.014 µM.
As for `O=C(NCC(c1cnc(C(F)(F)F)nc1)N1CCC(F)(F)CC1)c1cc(F)cc(Cl)c1Cl` (single isomer, unassigned; (+)) [(+)2,3-dichloro-N-[2-(4,4-difluoro-1-piperidyl)-2-[2-(triflu] [(+)2,3-dichloro-5-fluoro-N-(2-(4,4-difluoropiperidin-1-yl)-2-(2-(trifluoromethyl)pyrimidin-5-yl)ethyl)benzamide], the IC50 was found to be 0.0049 µM.
In the case of `O=C(NCC(c1cnc(C(F)F)nc1)N1CCOCC1)c1ccccc1Cl` (single isomer, unassigned; (-)) [(−)2-chloro-N-[2-[2-(difluoromethyl)pyrimidin-5-yl]-2-morpho] [(−)2-chloro-N-(2-(2-(difluoromethyl)pyrimidin-5-yl)-2-morpholinoethyl)benzamide] it was 0.015 µM; in that of `O=C(NCC(c1cccnc1)N1CCOCC1)c1cccc(Cl)c1Cl` (stereo not drawn) [2,3-Dichloro-N-(2-morpholin-4-yl-2-pyridin-3-yl-ethyl)-benzamide], 1.1 µM.
In the case of `O=C(NCC(c1ccc(F)nc1)N1CCC(F)(F)CC1)c1cccc(Cl)c1Cl` (stereo not drawn) [2,3-Dichloro-N-[2-(4,4-difluoro-1-piperidyl)-2-(6-fluoro-3-pyridyl)ethyl]benzamide] it was 0.00089 µM.
In the case of `Cc1ncc(C(CNC(=O)c2ccc(Cl)cc2Cl)N2CCC(=O)CC2)cn1` (stereo not drawn) [2,4-dichloro-N-(2-(2-methylpyrimidin-5-yl)-2-(-1-yl)ethyl)benzamide], the IC50 amounted to 0.97 µM.
In the case of `Cc1ncc(C(CNC(=O)c2cccc(Cl)c2Cl)N2CCC(F)(F)CC2)cn1` (single isomer, unassigned; (+)) [(+)2,3-dichloro-N-[2-(4,4-difluoro-1-piperidyl)-2-(2-methylp] [(+)2,3-dichloro-N-(2-(4,4-difluoropiperidin-1-yl)-2-(2-methylpyrimidin-5-yl)ethyl)benzamide] it was 0.0032 µM; in that of `O=C(NCC(c1cnc(C(F)(F)F)nc1)N1CCC(F)(F)CC1)c1cccc(Cl)c1Cl` (stereo not drawn) [2,3-dichloro-N-(2-(4,4-difluoropiperidin-1-yl)-2-(2-(trifluoromethyl)pyrimidin-5-yl)ethyl)benzamide], 0.00065 µM.
In turn, `COc1ccc(F)c(C(=O)NCC(c2cnc(C(F)(F)F)nc2)N2CCC(F)(F)CC2)c1Cl` (single isomer, unassigned; (-)) [(−)2-chloro-N-[2-(4,4-difluoro-1-piperidyl)-2-[2-(trifluorom] [(−)2-chloro-N-(2-(4,4-difluoropiperidin-1-yl)-2-(2-(trifluoromethyl)pyrimidin-5-yl)ethyl)-6-fluoro-3-methoxybenzamide] gave an IC50 of 0.031 µM.
In the case of `Cc1cccc(C(=O)NC[C@H](c2ccc(Cl)cc2)N2CCOCC2)c1Cl` [2-Chloro-N-[(S)-2-(4-chloro-phenyl)-2-morpholin-4-yl-ethyl]-3-methyl-benzamide] it was 0.00053 µM; in that of `Cc1ccccc1C(=O)NC[C@H](c1ccc(Cl)cc1)N1CCOCC1` [N-[(S)-2-(4-Chloro-phenyl)-2-morpholin-4-yl-ethyl]-2-methyl-benzamide], 0.0093 µM; in that of `Cn1cc(C(CNC(=O)c2ccccc2Cl)N2CCC(F)(F)CC2)cn1` (single isomer, unassigned; (-)) [(−)2-chloro-N-[2-(4,4-difluoro-1-piperidyl)-2-(1-methylpyraz] [(−)2-chloro-N-(2-(4,4-difluoropiperidin-1-yl)-2-(1-methyl-1H-pyrazol-4-yl)ethyl)benzamide], 0.23 µM.
In the case of `O=C(NCC(c1cnc(C(F)(F)F)nc1)N1CCC(F)CC1)c1c(Cl)cccc1Cl` (single isomer, unassigned; (-)) [(−)2,6-dichloro-N-[2-(4-fluoro-1-piperidyl)-2-[2-(trifluorom] [(−)2,6-dichloro-N-(2-(4-fluoropiperidin-1-yl)-2-(2-(trifluoromethyl)pyrimidin-5-yl)ethyl)benzamide] it was 0.015 µM.
As for `O=C(NCC(c1cnc(C(F)(F)F)nc1)N1CCC(F)(F)CC1)c1c(F)cccc1Cl` (single isomer, unassigned; (+)) [(+)2-chloro-N-[2-(4,4-difluoro-1-piperidyl)-2-[2-(trifluorom] [(+)2-chloro-6-fluoro-N-(2-(4,4-difluoropiperidin-1-yl)-2-(2-(trifluoromethyl)pyrimidin-5-yl)ethyl)benzamide], the figure is 0.0083 µM.
In turn, `Cc1ncc(C(CNC(=O)c2cccc(Cl)c2Cl)N2CC3CCC2C3)cn1` (stereo not drawn) [N-(2-(2-azabicyclo[2.2.1]heptan-2-yl)-2-(2-methylpyrimidin-5-yl)ethyl)-2,3-dichlorobenzamide] came in with an IC50 of 3.2 µM.
In turn, `O=C(NCC(c1cnc(C(F)(F)F)nc1)N1CCC(F)CC1)c1cccc(Cl)c1Cl` (single isomer, unassigned; (-)) [(−)2,3-dichloro-N-[2-(4-fluoro-1-piperidyl)-2-[2-(trifluorom] [(−)2,3-dichloro-N-(2-(4-fluoropiperidin-1-yl)-2-(2-(trifluoromethyl)pyrimidin-5-yl)ethyl)benzamide] displayed a half-inhibitory concentration (IC50) of 0.0047 µM. Compared with the last molecule, the IC50 is about 680-fold lower.
As for `COc1cccc(C(=O)NCC(c2ccc(C(F)F)nc2)N2CCC(F)(F)CC2)c1Cl` (single isomer, unassigned; (+)) [(+)2-chloro-N-[2-[6-(difluoromethyl)-3-pyridyl]-2-(4,4-diflu] [(+)2-chloro-3-methoxy-N-(2-(2-(difluoromethyl)pyridin-5-yl)-2-(4,4-difluoropiperidin-1-yl)ethyl)benzamide], the figure is 0.0023 µM; as for `Cc1ccc(Cl)c(C(=O)NCC(c2cccnc2)N2CCOCC2)c1` (stereo not drawn) [2-Chloro-5-methyl-N-(2-morpholin-4-yl-2-pyridin-3-yl-ethyl)-benzamide], 3 µM; as for `O=C(NCC(c1ccc(C(F)F)nc1)N1CCC(F)(F)CC1)c1c(Cl)cccc1Cl` (single isomer, unassigned; (+)) [(+)2,6-dichloro-N-[2-[6-(difluoromethyl)-3-pyridyl]-2-(4,4-d] [(+)2,6-dichloro-N-(2-(2-(difluoromethyl)pyridin-5-yl)-2-(4,4-difluoropiperidin-1-yl)ethyl)benzamide], 0.0087 µM.
In the case of `Cc1ncc(C(CNC(=O)c2c(F)cccc2Cl)N2CCCC(F)(F)C2)cn1` (single isomer, unassigned; (+)) [(+)2-chloro-N-[2-(3,3-difluoro-1-piperidyl)-2-(2-methylpyrim] [(+)2-chloro-6-fluoro-N-(2-(3,3-difluoropiperidin-1-yl)-2-(2-methylpyrimidin-5-yl)ethyl)benzamide] it was 0.053 µM; in that of `O=C(NCC(c1ccc(C(F)(F)F)nc1)N1CCOCC1)c1cccc(C(F)(F)F)c1Cl` (single isomer, unassigned; (-)) [(−)2-chloro-N-[2-morpholino-2-[6-(trifluoromethyl)-3-pyridyl] [(−)2-Chloro-N-[2-morpholino-2-[6-(trifluoromethyl)-3-pyridyl]ethyl]-3-(trifluoromethyl)benzamide], 0.012 µM.
In the case of `Cn1cc(C(CNC(=O)c2c(Cl)cccc2Cl)N2CCC(F)(F)CC2)cn1` (single isomer, unassigned; (+)) [(+)2,6-dichloro-N-[2-(4,4-difluoro-1-piperidyl)-2-(1-methylp] [(+)2,6-dichloro-N-(2-(4,4-difluoropiperidin-1-yl)-2-(1-methyl-1H-pyrazol-4-yl)ethyl)benzamide] it was 0.056 µM.
